PMC11604427 (Frontiers in Pharmacology, 2024)

How the values were obtained:
In vivo pharmacokinetics = conditions: BALB/c, mouse, plasma, mice, 5 mg/kg
Procedure: In the pharmacokinetic (PK) assessment of PKHD-5, BALB/c mice were utilized as the experimental model. PKHD-5 was administered either intraperitoneally or orally at a dosage of 5 mg/kg. Serial blood samples (0.25 mL) were collected at 0.25, 0.5, 1, 2, 4, 8, 16, and 24 h post-treatment. Each plasma sample (50 μL) underwent protein precipitation with a 1:1 mixture of methanol and acetonitrile (200 μL) and an internal standard. After vortexing for 5 min, the samples were centrifuged at 12,000 rpm for 5 min, yielding a supernatant (60 μL) for LC-MS/MS analysis. The data obtained were analyzed using Phoenix software to determine the PK profile of PKHD-5 in the mouse model.

FGFR3 = target: T1, FGFR3 (Homo sapiens, UniProt P22607); test: SelectScreen kinase selectivity assay; assay type: biochemical
T1 construct: purchased Thermo Fisher Scientific (SelectScreen service)
Procedure: (§1) The kinase selectivity analysis of PKHD-5 was performed using the SelectScreen kinase analysis service provided by Thermo Fisher Scientific. The experiment initially involved the preparation of a series of inhibitor solutions at varying concentrations, which were then reacted with various kinase targets under standardized conditions to calculate the percentage inhibition for each test solution. Ultimately, the IC50 values were calculated based on the concentration-inhibition curves by fitting a four-parameter logistic curve, thereby assessing the potency and selectivity of the inhibitors. The analysis results are detailed in Supplementary Table S1.

EPHA8 = target: T2, EPHA8 (Homo sapiens, UniProt P29322); test: SelectScreen kinase selectivity assay; assay type: biochemical
T2 construct: purchased Thermo Fisher Scientific (SelectScreen service)
Procedure: as §1

JAK3 = target: T3, JAK3 (Homo sapiens, UniProt P52333); test: SelectScreen kinase selectivity assay; assay type: biochemical
T3 construct: purchased Thermo Fisher Scientific (SelectScreen service)
Procedure: as §1

ROS1 = target: T4, ROS1 (Homo sapiens, UniProt P08922); test: SelectScreen kinase selectivity assay; assay type: biochemical
T4 construct: purchased Thermo Fisher Scientific (SelectScreen service)
Procedure: as §1

ALK = target: T5, ALK (Homo sapiens, UniProt Q9UM73); test: SelectScreen kinase selectivity assay; assay type: biochemical
T5 construct: purchased Thermo Fisher Scientific (SelectScreen service)
Procedure: as §1

IGF1R = target: T6, IGF1R (Homo sapiens, UniProt P08069); test: SelectScreen kinase selectivity assay; assay type: biochemical
T6 construct: purchased Thermo Fisher Scientific (SelectScreen service)
Procedure: as §1

ITK = target: T7, ITK (Homo sapiens, UniProt Q08881); test: SelectScreen kinase selectivity assay; assay type: biochemical
T7 construct: purchased Thermo Fisher Scientific (SelectScreen service)
T7 sequence (Q08881 whole entry): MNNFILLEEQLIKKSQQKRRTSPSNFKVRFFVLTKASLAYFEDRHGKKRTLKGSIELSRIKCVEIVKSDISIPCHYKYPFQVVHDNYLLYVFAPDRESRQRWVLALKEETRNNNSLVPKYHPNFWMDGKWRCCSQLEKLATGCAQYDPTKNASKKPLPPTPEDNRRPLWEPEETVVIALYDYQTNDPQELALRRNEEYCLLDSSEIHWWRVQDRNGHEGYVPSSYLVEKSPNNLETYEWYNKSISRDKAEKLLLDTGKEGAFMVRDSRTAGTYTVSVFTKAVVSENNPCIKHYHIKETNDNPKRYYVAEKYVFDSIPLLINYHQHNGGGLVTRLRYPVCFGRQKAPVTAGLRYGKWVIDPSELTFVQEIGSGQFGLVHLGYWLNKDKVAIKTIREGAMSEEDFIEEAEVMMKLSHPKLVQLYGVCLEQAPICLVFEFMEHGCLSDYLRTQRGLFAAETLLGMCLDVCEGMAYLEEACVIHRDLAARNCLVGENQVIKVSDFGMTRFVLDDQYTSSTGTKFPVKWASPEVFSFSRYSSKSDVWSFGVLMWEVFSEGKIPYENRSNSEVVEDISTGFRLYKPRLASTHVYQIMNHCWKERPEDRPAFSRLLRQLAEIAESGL
Procedure: as §1

FGFR1 = target: T8, FGFR1 (Homo sapiens, UniProt P11362); test: SelectScreen kinase selectivity assay; assay type: biochemical
T8 construct: purchased Thermo Fisher Scientific (SelectScreen service)
Procedure: as §1

HCK = target: T9, HCK (Homo sapiens, UniProt P08631); test: SelectScreen kinase selectivity assay; assay type: biochemical
T9 construct: purchased Thermo Fisher Scientific (SelectScreen service)
Procedure: as §1

CSF1R = target: T10, CSF1R (Homo sapiens, UniProt P07333); test: SelectScreen kinase selectivity assay; assay type: biochemical
T10 construct: purchased Thermo Fisher Scientific (SelectScreen service)
T10 sequence (P07333 20-972): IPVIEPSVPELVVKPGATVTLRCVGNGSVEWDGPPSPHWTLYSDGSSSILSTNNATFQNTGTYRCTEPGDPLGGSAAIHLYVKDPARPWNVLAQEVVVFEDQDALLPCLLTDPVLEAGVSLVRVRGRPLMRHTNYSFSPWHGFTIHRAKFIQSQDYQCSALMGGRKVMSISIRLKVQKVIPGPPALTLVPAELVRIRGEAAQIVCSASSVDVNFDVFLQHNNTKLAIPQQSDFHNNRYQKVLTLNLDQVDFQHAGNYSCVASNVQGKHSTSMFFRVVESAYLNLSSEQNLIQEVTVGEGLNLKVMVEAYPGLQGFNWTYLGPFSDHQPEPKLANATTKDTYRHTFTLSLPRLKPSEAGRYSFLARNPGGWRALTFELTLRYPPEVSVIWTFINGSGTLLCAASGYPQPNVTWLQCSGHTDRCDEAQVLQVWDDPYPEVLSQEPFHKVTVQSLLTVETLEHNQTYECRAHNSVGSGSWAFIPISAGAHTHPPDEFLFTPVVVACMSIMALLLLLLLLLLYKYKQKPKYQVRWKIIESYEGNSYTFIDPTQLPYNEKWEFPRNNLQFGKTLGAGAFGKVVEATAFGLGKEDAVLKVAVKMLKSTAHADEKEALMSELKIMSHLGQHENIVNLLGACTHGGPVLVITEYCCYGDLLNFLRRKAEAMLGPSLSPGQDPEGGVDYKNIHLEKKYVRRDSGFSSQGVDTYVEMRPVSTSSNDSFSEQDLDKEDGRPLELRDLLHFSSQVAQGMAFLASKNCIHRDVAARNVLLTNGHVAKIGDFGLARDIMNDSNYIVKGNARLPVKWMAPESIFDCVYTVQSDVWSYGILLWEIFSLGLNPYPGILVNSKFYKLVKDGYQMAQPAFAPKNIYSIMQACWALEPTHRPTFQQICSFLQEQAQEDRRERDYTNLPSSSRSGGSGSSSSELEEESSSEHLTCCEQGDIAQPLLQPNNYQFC
Procedure: as §1

NTRK1 = target: T11, NTRK1 (Homo sapiens, UniProt P04629); test: SelectScreen kinase selectivity assay; assay type: biochemical
T11 construct: purchased Thermo Fisher Scientific (SelectScreen service)
T11 sequence (P04629 33-796): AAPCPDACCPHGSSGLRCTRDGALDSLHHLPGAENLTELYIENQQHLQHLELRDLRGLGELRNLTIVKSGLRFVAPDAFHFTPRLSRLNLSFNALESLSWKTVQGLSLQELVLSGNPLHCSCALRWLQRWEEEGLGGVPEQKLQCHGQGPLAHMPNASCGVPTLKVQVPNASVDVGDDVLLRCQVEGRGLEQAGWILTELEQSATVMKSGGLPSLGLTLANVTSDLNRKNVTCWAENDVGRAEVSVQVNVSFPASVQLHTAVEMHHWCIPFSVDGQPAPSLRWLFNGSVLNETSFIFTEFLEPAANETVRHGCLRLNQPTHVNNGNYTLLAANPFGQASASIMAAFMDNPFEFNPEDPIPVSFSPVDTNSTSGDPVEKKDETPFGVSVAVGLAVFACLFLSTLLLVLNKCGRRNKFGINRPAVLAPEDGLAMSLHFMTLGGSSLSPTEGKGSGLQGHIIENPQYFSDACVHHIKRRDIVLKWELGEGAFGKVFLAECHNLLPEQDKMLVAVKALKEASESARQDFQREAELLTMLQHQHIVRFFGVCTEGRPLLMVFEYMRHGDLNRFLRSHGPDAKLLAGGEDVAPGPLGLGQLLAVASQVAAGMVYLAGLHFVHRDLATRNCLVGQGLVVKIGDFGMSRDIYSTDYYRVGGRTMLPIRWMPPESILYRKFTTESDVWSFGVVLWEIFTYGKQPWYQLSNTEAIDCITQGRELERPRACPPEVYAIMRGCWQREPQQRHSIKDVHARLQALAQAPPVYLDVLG
Procedure: as §1

LYN = target: T12, LYN (Homo sapiens, UniProt P07948); test: SelectScreen kinase selectivity assay; assay type: biochemical
T12 construct: purchased Thermo Fisher Scientific (SelectScreen service)
T12 sequence (P07948 whole entry): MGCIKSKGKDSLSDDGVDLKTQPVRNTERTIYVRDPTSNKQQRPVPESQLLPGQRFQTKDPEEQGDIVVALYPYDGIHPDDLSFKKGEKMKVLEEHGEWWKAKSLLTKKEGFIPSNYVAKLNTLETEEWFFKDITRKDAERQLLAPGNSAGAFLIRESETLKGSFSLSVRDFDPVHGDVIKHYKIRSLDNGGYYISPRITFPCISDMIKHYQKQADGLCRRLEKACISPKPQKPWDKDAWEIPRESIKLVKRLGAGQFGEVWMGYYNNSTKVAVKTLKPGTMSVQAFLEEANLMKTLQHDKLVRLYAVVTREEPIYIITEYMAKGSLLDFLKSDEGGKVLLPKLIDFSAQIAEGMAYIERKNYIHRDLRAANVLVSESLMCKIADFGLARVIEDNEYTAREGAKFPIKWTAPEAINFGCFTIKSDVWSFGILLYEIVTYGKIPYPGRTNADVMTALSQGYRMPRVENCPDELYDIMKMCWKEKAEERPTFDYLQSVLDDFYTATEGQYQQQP
Procedure: as §1

FGFR4 = target: T13, FGFR4 (Homo sapiens, UniProt P22455); test: SelectScreen kinase selectivity assay; assay type: biochemical
T13 construct: purchased Thermo Fisher Scientific (SelectScreen service)
Procedure: as §1

JAK1 = target: T14, JAK1 (Homo sapiens, UniProt P23458); test: SelectScreen kinase selectivity assay; assay type: biochemical
T14 construct: purchased Thermo Fisher Scientific (SelectScreen service)
Procedure: as §1

KDR = target: T15, KDR (Homo sapiens, UniProt P35968); test: SelectScreen kinase selectivity assay; assay type: biochemical
T15 construct: purchased Thermo Fisher Scientific (SelectScreen service)
Procedure: as §1

ERBB4 = target: T16, ERBB4 (Homo sapiens, UniProt Q15303); test: SelectScreen kinase selectivity assay; assay type: biochemical
T16 construct: purchased Thermo Fisher Scientific (SelectScreen service)
Procedure: as §1

PTK2 = target: T17, PTK2 (Homo sapiens, UniProt Q05397); test: SelectScreen kinase selectivity assay; assay type: biochemical
T17 construct: purchased Thermo Fisher Scientific (SelectScreen service)
Procedure: as §1

EPHA7 = target: T18, EPHA7 (Homo sapiens, UniProt Q15375); test: SelectScreen kinase selectivity assay; assay type: biochemical
T18 construct: purchased Thermo Fisher Scientific (SelectScreen service)
Procedure: as §1

INSRR = target: T19, INSRR (Homo sapiens, UniProt P14616); test: SelectScreen kinase selectivity assay; assay type: biochemical
T19 construct: purchased Thermo Fisher Scientific (SelectScreen service)
T19 sequence (P14616 27-1297): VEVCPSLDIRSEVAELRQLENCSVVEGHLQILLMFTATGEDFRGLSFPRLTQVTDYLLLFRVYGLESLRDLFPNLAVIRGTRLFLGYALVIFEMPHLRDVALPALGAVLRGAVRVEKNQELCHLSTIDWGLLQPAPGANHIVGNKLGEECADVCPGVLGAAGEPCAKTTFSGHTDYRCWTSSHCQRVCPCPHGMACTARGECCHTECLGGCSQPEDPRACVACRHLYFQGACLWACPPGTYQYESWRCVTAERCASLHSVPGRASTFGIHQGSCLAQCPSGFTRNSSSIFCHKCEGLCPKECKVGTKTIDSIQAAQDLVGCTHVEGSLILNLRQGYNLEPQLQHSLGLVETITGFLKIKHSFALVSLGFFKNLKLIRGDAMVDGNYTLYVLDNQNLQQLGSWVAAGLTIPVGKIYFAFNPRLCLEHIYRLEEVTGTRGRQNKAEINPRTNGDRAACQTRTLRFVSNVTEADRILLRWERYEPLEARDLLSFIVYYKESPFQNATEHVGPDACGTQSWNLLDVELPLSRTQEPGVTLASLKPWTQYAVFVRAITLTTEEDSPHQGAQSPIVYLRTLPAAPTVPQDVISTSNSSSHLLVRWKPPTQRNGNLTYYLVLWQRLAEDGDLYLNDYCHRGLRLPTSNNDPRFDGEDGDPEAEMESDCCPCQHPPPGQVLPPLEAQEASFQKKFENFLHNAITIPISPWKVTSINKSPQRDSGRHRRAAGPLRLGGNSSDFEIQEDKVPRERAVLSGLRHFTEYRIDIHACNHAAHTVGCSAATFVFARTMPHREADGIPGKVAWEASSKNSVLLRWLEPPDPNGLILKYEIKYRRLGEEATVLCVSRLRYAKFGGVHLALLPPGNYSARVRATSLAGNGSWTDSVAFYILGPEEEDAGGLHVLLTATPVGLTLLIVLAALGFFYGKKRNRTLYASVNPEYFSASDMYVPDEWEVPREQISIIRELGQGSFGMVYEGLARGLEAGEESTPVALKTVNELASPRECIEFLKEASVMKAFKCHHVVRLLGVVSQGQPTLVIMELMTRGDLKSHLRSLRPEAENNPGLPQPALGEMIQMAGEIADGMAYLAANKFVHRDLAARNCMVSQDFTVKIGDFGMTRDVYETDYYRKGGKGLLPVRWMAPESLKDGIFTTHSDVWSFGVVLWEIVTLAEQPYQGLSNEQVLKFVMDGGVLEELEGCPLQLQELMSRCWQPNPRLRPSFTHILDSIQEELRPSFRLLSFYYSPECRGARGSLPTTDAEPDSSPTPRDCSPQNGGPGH
Procedure: as §1

TYRO3 = target: T20, TYRO3 (Homo sapiens, UniProt Q06418); test: SelectScreen kinase selectivity assay; assay type: biochemical
T20 construct: purchased Thermo Fisher Scientific (SelectScreen service)
T20 sequence (Q06418 41-890): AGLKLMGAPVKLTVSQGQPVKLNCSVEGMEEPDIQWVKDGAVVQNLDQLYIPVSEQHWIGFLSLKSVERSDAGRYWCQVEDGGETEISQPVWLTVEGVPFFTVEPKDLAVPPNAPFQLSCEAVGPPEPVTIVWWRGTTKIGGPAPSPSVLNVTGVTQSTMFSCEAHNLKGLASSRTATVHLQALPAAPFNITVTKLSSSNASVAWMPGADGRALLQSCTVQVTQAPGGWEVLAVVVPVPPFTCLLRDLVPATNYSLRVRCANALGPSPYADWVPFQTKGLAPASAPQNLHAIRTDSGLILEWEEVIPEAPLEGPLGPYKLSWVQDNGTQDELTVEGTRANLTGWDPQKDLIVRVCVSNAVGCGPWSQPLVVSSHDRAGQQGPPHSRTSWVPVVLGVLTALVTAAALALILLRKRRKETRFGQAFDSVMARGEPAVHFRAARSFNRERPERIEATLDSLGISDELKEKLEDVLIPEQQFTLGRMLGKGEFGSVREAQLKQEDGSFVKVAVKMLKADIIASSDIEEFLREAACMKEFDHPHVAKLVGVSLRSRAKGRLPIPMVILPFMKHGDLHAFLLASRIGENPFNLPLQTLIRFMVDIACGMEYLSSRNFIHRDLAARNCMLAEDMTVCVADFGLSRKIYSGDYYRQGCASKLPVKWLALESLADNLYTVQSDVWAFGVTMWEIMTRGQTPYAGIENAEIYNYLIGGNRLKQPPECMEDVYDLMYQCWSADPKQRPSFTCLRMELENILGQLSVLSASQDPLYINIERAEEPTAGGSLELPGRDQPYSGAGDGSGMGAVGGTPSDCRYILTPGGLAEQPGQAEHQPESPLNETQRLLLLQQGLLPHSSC
Procedure: as §1

FYN = target: T21, FYN (Homo sapiens, UniProt P06241); test: SelectScreen kinase selectivity assay; assay type: biochemical
T21 construct: purchased Thermo Fisher Scientific (SelectScreen service)
Procedure: as §1

HepG2 cells = test: RT-PCR analysis; assay type: cell-based, human
Procedure: Total RNA was extracted from cells using Trizol reagent (Invitrogen, Carlsbad, CA) and reverse transcribed into cDNA with the PrimeScript RT reagent kit (Takara Bio, Otsu, Japan). RT-PCR was performed on the Mx3000P system (Agilent Technologies, Santa Clara, CA) with TB Green Premix Ex Taq II (Takara Bio). Relative gene expression was determined by the 2^−ΔΔCt method.

HepG2 xenograft = test: HepG2 bearing xenograft model; assay type: in vivo, BALB/c nude mice; conditions: versus vehicle
Excerpt: A previously reported human tumor xenograft model was established to evaluate the anti-tumor effects of PKHD-5 in vivo ([Zhou et al., 2022]). All procedures involving animals were granted approval by the Ethics Committee at China Pharmaceutical University. A total of 20 male BALB/c nude mice (6 weeks old) were purchased from Changzhou Cave Experimental Animal Co., Ltd. (Changzhou, China). Mice were maintained under specific pathogen-free (SPF) conditions, with environmental parameters meticulously controlled at a temperature of 25°C ± 2°C, relative humidity maintained at 50% ± 5%, and an established diurnal cycle of 12 h for both light and darkness. During the experiment, all mice were free to access water and food. After 10 days of adaptive feeding, HepG2 cells (1×10^7 cells) were subcutaneously injected into mice. Once the tumors reached a size of 90–120 mm^3, the nude mice were randomly assigned to either the vehicle control group or the group treated with PKHD-5 (n = 5). Furthermore, the treatment was divided into three dose-based groups of 1, 5, and 10 mg/kg. The tumor volume was measured by a digital caliper for a total of 18 days and calculated by the following formula: (c×c×d)/2, where c represents the minimum diameter of the tumor and d indicates the maximum diameter. In addition, the body weight of the mice was measured and recorded every 3 days.

Cc1ccc(O)c(C)c1-n1c(N)c(C(N)=O)c2cc(CCCCCC(=O)NO)c(C)nc21 [PKHD-5]
AUC (In vivo pharmacokinetics; IP): 15 µM·h | Cmax (In vivo pharmacokinetics; IP): 3.26 µM | bioavailability (In vivo pharmacokinetics; IP): 82% | half-life (In vivo pharmacokinetics; IP): 4.75 h | AUC (In vivo pharmacokinetics; PO): 12.2 µM·h | Cmax (In vivo pharmacokinetics; PO): 2.92 µM | bioavailability (In vivo pharmacokinetics; PO): 66% | half-life (In vivo pharmacokinetics; PO): 3.93 h | IC50 (FGFR3): > 50 µM | IC50 (EPHA8): > 50 µM | IC50 (JAK3): > 50 µM | IC50 (ROS1): > 50 µM | IC50 (ALK): > 50 µM | IC50 (IGF1R): > 50 µM | IC50 (ITK): > 50 µM | IC50 (FGFR1): > 50 µM | IC50 (HCK): > 50 µM | IC50 (CSF1R): > 50 µM | IC50 (NTRK1): > 50 µM | IC50 (LYN): > 50 µM | IC50 (FGFR4): > 50 µM | IC50 (JAK1): > 50 µM | IC50 (KDR): > 50 µM | IC50 (ERBB4): > 50 µM | IC50 (PTK2): > 50 µM | IC50 (EPHA7): > 50 µM | IC50 (INSRR): > 50 µM | IC50 (TYRO3): > 50 µM | IC50 (FYN): > 50 µM | expression of histone H3 acetylation (HepG2 cells): upregulated | expression of p21 (HepG2 cells): upregulated | body weight changes in mice (HepG2 xenograft; HepG2 xenograft mice): did not exhibit any significant disparities | rate at which tumors grew (tumor volume) (HepG2 xenograft; HepG2 xenograft, intraperitoneal 1, 5, 10 mg/kg, 18 days): considerably lower
